Results: PubChem BioAssay (NCI)
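1) Cells in 96-well plates. 2) Compound, 48 h, 5 concentrations. 3) Linear interpolation between surrounding doses. 4) Unreached endpoint = highest concentration. Definition used: TGI = concentration required for complete inhibition of growth.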

What was measured:
Experiment in all cases: growth of human tumour cells (NCI), 48 h
HOP-92 NSCLC = system: HOP-92 NSCLC
OVCAR-3 ovarian = system: OVCAR-3 ovarian
SNB-19 CNS = system: SNB-19 CNS
HCT-15 colon = system: HCT-15 colon
MCF7 breast = system: MCF7 breast
NCI/ADR-RES ovarian = system: NCI/ADR-RES ovarian
NCI-H522 lung = system: NCI-H522 lung
HT29 colon = system: HT29 colon
HCC-2998 colon = system: HCC-2998 colon
MDA-MB-231 breast = system: MDA-MB-231 breast
786-0 renal = system: 786-0 renal
NCI-H460 lung = system: NCI-H460 lung
SF-295 CNS = system: SF-295 CNS
RPMI-8226 leukemia = system: RPMI-8226 leukemia
RXF 393 renal = system: RXF 393 renal
CAKI-1 renal = system: CAKI-1 renal
SK-MEL-28 melanoma = system: SK-MEL-28 melanoma
KM12 colon = system: KM12 colon
K-562 leukemia = system: K-562 leukemia
M14 melanoma = system: M14 melanoma
SK-MEL-2 melanoma = system: SK-MEL-2 melanoma
HS 578T breast = system: HS 578T breast
OVCAR-8 ovarian = system: OVCAR-8 ovarian
NCI-H23 lung = system: NCI-H23 lung
SF-539 CNS = system: SF-539 CNS
T-47D breast = system: T-47D breast
A549 NSCLC = system: A549 NSCLC
DU-145 prostate = system: DU-145 prostate
SR leukemia = system: SR leukemia
SF-268 CNS = system: SF-268 CNS
NCI-H226 lung = system: NCI-H226 lung
HCT-116 colon = system: HCT-116 colon
UO-31 renal = system: UO-31 renal
HOP-62 NSCLC = system: HOP-62 NSCLC
SK-MEL-5 melanoma = system: SK-MEL-5 melanoma
EKVX NSCLC = system: EKVX NSCLC
IGROV1 ovarian = system: IGROV1 ovarian
SK-OV-3 ovarian = system: SK-OV-3 ovarian
MDA-N = system: MDA-N
TK-10 renal = system: TK-10 renal
OVCAR-4 ovarian = system: OVCAR-4 ovarian
LOX IMVI melanoma = system: LOX IMVI melanoma
PC-3 prostate = system: PC-3 prostate
SNB-75 CNS = system: SNB-75 CNS
BT-549 breast = system: BT-549 breast
HL-60(TB) leukemia = system: HL-60(TB) leukemia
MOLT-4 leukemia = system: MOLT-4 leukemia
U251 CNS = system: U251 CNS
UACC-257 melanoma = system: UACC-257 melanoma
UACC-62 melanoma = system: UACC-62 melanoma
A498 renal = system: A498 renal
SW-620 colon = system: SW-620 colon
OVCAR-5 ovarian = system: OVCAR-5 ovarian
COLO 205 colon = system: COLO 205 colon
SN12C renal = system: SN12C renal
MDA-MB-435 = system: MDA-MB-435
ACHN renal = system: ACHN renal
CCRF-CEM leukemia = system: CCRF-CEM leukemia
MALME-3M melanoma = system: MALME-3M melanoma

CN1CCN(CCCNN)CC1
TGI (HOP-92 NSCLC): > 100 µM | TGI (OVCAR-3 ovarian): > 100 µM | TGI (SNB-19 CNS): > 100 µM | TGI (HCT-15 colon): > 100 µM | TGI (MCF7 breast): > 100 µM | TGI (NCI/ADR-RES ovarian): > 100 µM | TGI (NCI-H522 lung): > 100 µM | TGI (HT29 colon): > 100 µM | TGI (HCC-2998 colon): > 100 µM | TGI (MDA-MB-231 breast): > 100 µM | TGI (786-0 renal): > 100 µM | TGI (NCI-H460 lung): > 100 µM | TGI (SF-295 CNS): > 100 µM | TGI (RPMI-8226 leukemia): > 100 µM | TGI (RXF 393 renal): > 100 µM | TGI (CAKI-1 renal): > 100 µM | TGI (SK-MEL-28 melanoma): > 100 µM | TGI (KM12 colon): > 100 µM | TGI (K-562 leukemia): 37.5 µM | TGI (M14 melanoma): > 100 µM | TGI (SK-MEL-2 melanoma): > 100 µM | TGI (HS 578T breast): > 100 µM | TGI (OVCAR-8 ovarian): > 100 µM | TGI (NCI-H23 lung): > 100 µM | TGI (SF-539 CNS): > 100 µM | TGI (T-47D breast): > 100 µM | TGI (A549 NSCLC): > 100 µM | TGI (DU-145 prostate): > 100 µM | TGI (SR leukemia): > 100 µM | TGI (SF-268 CNS): > 100 µM | TGI (NCI-H226 lung): > 100 µM | TGI (HCT-116 colon): > 100 µM | TGI (UO-31 renal): > 100 µM | TGI (HOP-62 NSCLC): > 100 µM | TGI (SK-MEL-5 melanoma): > 100 µM | TGI (EKVX NSCLC): > 100 µM | TGI (IGROV1 ovarian): > 100 µM | TGI (SK-OV-3 ovarian): > 100 µM | TGI (MDA-N): > 100 µM | TGI (TK-10 renal): > 100 µM | TGI (OVCAR-4 ovarian): > 100 µM | TGI (LOX IMVI melanoma): > 100 µM | TGI (PC-3 prostate): > 100 µM | TGI (SNB-75 CNS): > 100 µM | TGI (BT-549 breast): > 100 µM | TGI (HL-60(TB) leukemia): > 100 µM | TGI (MOLT-4 leukemia): 1.44 µM | TGI (U251 CNS): > 100 µM | TGI (UACC-257 melanoma): > 100 µM | TGI (UACC-62 melanoma): > 100 µM | TGI (A498 renal): > 100 µM | TGI (SW-620 colon): > 100 µM | TGI (OVCAR-5 ovarian): > 100 µM | TGI (COLO 205 colon): > 100 µM | TGI (SN12C renal): > 100 µM | TGI (MDA-MB-435): > 100 µM | TGI (ACHN renal): > 100 µM

O=C(O)Cc1cc(F)ccc1C(=O)O
TGI (HOP-92 NSCLC): > 100 µM | TGI (OVCAR-3 ovarian): > 100 µM | TGI (CCRF-CEM leukemia): > 100 µM | TGI (SNB-19 CNS): > 100 µM | TGI (HCT-15 colon): > 100 µM | TGI (MCF7 breast): > 100 µM | TGI (NCI/ADR-RES ovarian): > 100 µM | TGI (NCI-H522 lung): > 100 µM | TGI (HT29 colon): > 100 µM | TGI (HCC-2998 colon): > 100 µM | TGI (MDA-MB-231 breast): > 100 µM | TGI (786-0 renal): > 100 µM | TGI (NCI-H460 lung): > 100 µM | TGI (SF-295 CNS): > 100 µM | TGI (RPMI-8226 leukemia): > 100 µM | TGI (RXF 393 renal): > 100 µM | TGI (CAKI-1 renal): > 100 µM | TGI (SK-MEL-28 melanoma): > 100 µM | TGI (KM12 colon): > 100 µM | TGI (K-562 leukemia): > 100 µM | TGI (M14 melanoma): > 100 µM | TGI (SK-MEL-2 melanoma): > 100 µM | TGI (HS 578T breast): > 100 µM | TGI (OVCAR-8 ovarian): > 100 µM | TGI (NCI-H23 lung): > 100 µM | TGI (SF-539 CNS): > 100 µM | TGI (T-47D breast): > 100 µM | TGI (A549 NSCLC): > 100 µM | TGI (DU-145 prostate): > 100 µM | TGI (SR leukemia): > 100 µM | TGI (SF-268 CNS): > 100 µM | TGI (HCT-116 colon): > 100 µM | TGI (UO-31 renal): > 100 µM | TGI (HOP-62 NSCLC): > 100 µM | TGI (SK-MEL-5 melanoma): > 100 µM | TGI (EKVX NSCLC): > 100 µM | TGI (IGROV1 ovarian): 75.9 µM | TGI (SK-OV-3 ovarian): > 100 µM | TGI (MDA-N): > 100 µM | TGI (TK-10 renal): > 100 µM | TGI (LOX IMVI melanoma): > 100 µM | TGI (PC-3 prostate): > 100 µM | TGI (SNB-75 CNS): > 100 µM | TGI (BT-549 breast): > 100 µM | TGI (HL-60(TB) leukemia): > 100 µM | TGI (MOLT-4 leukemia): > 100 µM | TGI (U251 CNS): > 100 µM | TGI (UACC-257 melanoma): > 100 µM | TGI (UACC-62 melanoma): > 100 µM | TGI (A498 renal): > 100 µM | TGI (SW-620 colon): > 100 µM | TGI (OVCAR-5 ovarian): > 100 µM | TGI (COLO 205 colon): > 100 µM | TGI (SN12C renal): > 100 µM | TGI (MDA-MB-435): > 100 µM | TGI (ACHN renal): > 100 µM

Clc1ccc(-c2nc3ccc(Cl)cc3[nH]2)cc1
TGI (HOP-92 NSCLC): 75.1 µM | TGI (OVCAR-3 ovarian): 96.5 µM | TGI (CCRF-CEM leukemia): > 100 µM | TGI (SNB-19 CNS): > 100 µM | TGI (HCT-15 colon): > 100 µM | TGI (MCF7 breast): > 100 µM | TGI (NCI/ADR-RES ovarian): 56.1 µM | TGI (NCI-H522 lung): 80.1 µM | TGI (HT29 colon): > 100 µM | TGI (HCC-2998 colon): 89.1 µM | TGI (MDA-MB-231 breast): > 100 µM | TGI (786-0 renal): > 100 µM | TGI (MALME-3M melanoma): > 100 µM | TGI (NCI-H460 lung): 98.4 µM | TGI (SF-295 CNS): 74.9 µM | TGI (RPMI-8226 leukemia): 79.1 µM | TGI (RXF 393 renal): > 100 µM | TGI (CAKI-1 renal): > 100 µM | TGI (SK-MEL-28 melanoma): > 100 µM | TGI (KM12 colon): 98.1 µM | TGI (K-562 leukemia): > 100 µM | TGI (M14 melanoma): > 100 µM | TGI (SK-MEL-2 melanoma): 67.4 µM | TGI (HS 578T breast): > 100 µM | TGI (OVCAR-8 ovarian): > 100 µM | TGI (NCI-H23 lung): 90.3 µM | TGI (SF-539 CNS): > 100 µM | TGI (T-47D breast): > 100 µM | TGI (A549 NSCLC): > 100 µM | TGI (DU-145 prostate): > 100 µM | TGI (SR leukemia): > 100 µM | TGI (SF-268 CNS): > 100 µM | TGI (NCI-H226 lung): > 100 µM | TGI (HCT-116 colon): 53.3 µM | TGI (UO-31 renal): 79.3 µM | TGI (HOP-62 NSCLC): > 100 µM | TGI (SK-MEL-5 melanoma): > 100 µM | TGI (EKVX NSCLC): > 100 µM | TGI (IGROV1 ovarian): > 100 µM | TGI (SK-OV-3 ovarian): > 100 µM | TGI (MDA-N): 85.2 µM | TGI (TK-10 renal): > 100 µM | TGI (OVCAR-4 ovarian): > 100 µM | TGI (LOX IMVI melanoma): 69.5 µM | TGI (PC-3 prostate): 77.5 µM | TGI (SNB-75 CNS): > 100 µM | TGI (BT-549 breast): > 100 µM | TGI (HL-60(TB) leukemia): > 100 µM | TGI (MOLT-4 leukemia): > 100 µM | TGI (U251 CNS): > 100 µM | TGI (UACC-257 melanoma): > 100 µM | TGI (UACC-62 melanoma): > 100 µM | TGI (SW-620 colon): > 100 µM | TGI (COLO 205 colon): 34.9 µM | TGI (SN12C renal): 86.6 µM | TGI (MDA-MB-435): 84.5 µM | TGI (ACHN renal): > 100 µM
